The text below walks through data of paper PMC10761396, “Evaluation of new alternative methods for the identification of estrogenic, androgenic and steroidogenic effects: a comparative in vitro/in silico study” (Archives of Toxicology, 2023).

Where two headings read alike, the source gives them in different places.

For assay [1], the system named is H295R cells. The assay is described as follows: H295R steroidogenesis assay (oestrogen and androgen production). The settings on record: for minimal effective concentration: Homo sapiens, NCI-H295R, 48 h. The format is cell-based, human. Here is the method:
The in vitro H295R Steroidogenesis Assay is based on the human adenocarcinoma cell line, NCI-H295R, in which the human steroidogenesis pathway is fully functional (OECD 2022). The effect of the test chemical on the production of 17β-estradiol and testosterone is measured using ERα CALUX and AR CALUX technology.
The test chemical was tested in two independent assays, each in triplicate.

Assay [2] deals with AR. Set-up: method as in ToxCast. The settings on record: ref ToxCast, cited from earlier work; for ToxCast conclusion from assays result: AR sheet; for ToxCast 1: (Active assays), number of positive assays / assays run: ToxCast AR assays.
The target in assay [3] is T1, ERα (Homo sapiens, UniProt P03372).
T1 sequence (P03372 1-595): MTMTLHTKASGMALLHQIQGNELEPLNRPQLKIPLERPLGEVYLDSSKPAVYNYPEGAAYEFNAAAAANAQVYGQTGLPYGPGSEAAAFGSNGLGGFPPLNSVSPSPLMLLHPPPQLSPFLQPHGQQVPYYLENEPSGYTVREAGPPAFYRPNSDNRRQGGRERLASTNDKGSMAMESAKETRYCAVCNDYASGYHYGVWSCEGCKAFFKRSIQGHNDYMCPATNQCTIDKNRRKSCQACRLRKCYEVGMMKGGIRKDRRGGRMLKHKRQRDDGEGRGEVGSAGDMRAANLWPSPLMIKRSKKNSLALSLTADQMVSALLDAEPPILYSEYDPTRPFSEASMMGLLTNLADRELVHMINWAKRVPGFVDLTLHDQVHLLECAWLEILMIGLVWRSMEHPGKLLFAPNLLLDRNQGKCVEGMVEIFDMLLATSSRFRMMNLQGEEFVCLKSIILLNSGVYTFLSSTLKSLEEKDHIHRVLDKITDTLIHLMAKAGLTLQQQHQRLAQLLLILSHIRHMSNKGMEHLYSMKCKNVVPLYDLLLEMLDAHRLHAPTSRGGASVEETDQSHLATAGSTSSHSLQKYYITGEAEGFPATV
The assay is described as follows: (anti-)ERα CALUX receptor transactivation assay. It counts as cell-based. Further details: expressed in transfected cells; host or cells: CALUX cells (U2-OS is named only for the cytotoxicity CALUX). Here is the method:
The human CALUX® assays were used to measure the impact of test compounds on estrogen and androgen pathways. […] Chemicals can activate (or inactivate, in the case of an antagonistic activity) a ligand-specific pathway by binding to the receptor (ER, AR), after which the receptor-ligand complex binds to specific DNA REs […], resulting in increased (or decreased) cellular expression of a marker protein (e.g., luciferase).
Chemicals were dissolved and diluted in DMSO. […] The cytotoxicity of each test chemical was assessed using the U2-OS based cytotoxicity CALUX bioassay. Concentrations causing >20% reduction of luminescence were considered cytotoxic. […] Luciferase production was quantified by measuring luminescence following addition of luciferin. For antagonist assays, a fixed concentration of receptor agonist was co-incubated with a range of concentrations of the test chemical. […] For the AR assays, dihydrotestosterone was the positive control for agonistic effects and flutamide was the positive control for antagonist effects.
Each test chemical was tested in triplicates in two independent experiments.

The subject of assay [4] is aromatase. Nature of the assay: ToxCast aromatase assays (TOX21_Aromatase_Inhibition) and final ToxCast call. It counts as cell-based. The settings on record: for ToxCast result: aromatase overall ToxCast call; for Final "true" call (ToxCast) Aromatase inhibition: from ToxCast assays. The text has this: The performance of different in silico models for ED effects tends to be evaluated on single model for a single effect, such as ER or AR binding, agonism or antagonism (normally by the developer), or a limited number of models using multiple chemicals (Weyrich et al. [2022]). Multi-organisation collaborations have also evaluated multiple models for a specific effect e.g. ER (Mansouri et al. [2016]) and AR (Mansouri et al. [2020]) effects. Therefore, we have conducted a side-by-side comparison of multiple different in silico models covering three pathways in ED, namely ER, AR and aromatase inhibition and compared these with ToxCast-derived final calls, as well as with results from in vitro assays. The efficiency of the in silico models was evaluated as a metric for the ability of the in silico model to generate concrete predictions. […] In vivo data were available for some but not all chemicals; therefore, an evaluation of the performance of the methods was made by comparing the derived overall calls from in silico models with those from the ToxCast database. The final call for each chemical evaluated in the ToxCast assays was made by considering the active-flagged assays and the corresponding cytotoxicity levels, the ToxCast Pathway Model (Browne et al. [2015]) and the CERAPP Potency Level (Mansouri et al. [2016]) for ER effects and the ToxCast Pathway Model (Kleinstreuer et al. [2017]) for AR effects (see Online Resource 1 Supplementary Tables 2, 4 and 6 for the outcome of the ER, AR and aromatase ToxCast assays, additional literature and final calls for each chemical and target).
Aromatase represents only one enzyme involved in steroidogenesis (the conversion of androgens to oestrogens); therefore, the aromatase assay detects effects on 17β-oestradiol production only. […] It is a cell-based assay in which MCF-7 cells are incubated with the test chemical for 24 h before measuring aromatase activities indirectly via a luciferase-based reporter endpoint which is dependent on the binding of the oestradiol–ER complex to the oestrogen response element. A decrease in luciferase activity can occur as a result of direct inhibition of aromatase (preventing the production of oestradiol) or by preventing oestradiol from binding to the ER and thus the binding to the oestrogen RE which initiates the production of luciferase (Lui et al. [2008]).

Assay [5] concerns ER. Further details: method as in Mansouri et al. 2016. The settings on record: ref Mansouri et al. 2016; cited from earlier work.
The target in assay [6] is human AR (Homo sapiens, UniProt P10275). Nature of the assay: AR radioligand ([3H]methyltrienolone) receptor-binding assay.
Description: Binding to ER and AR was conducted using standard methods for radioligand assays (Kurata et al. [2005]; Zava et al. [1979]).
The chemicals were tested for their ability to bind to different targets. In radioligand assays, targets included the binding affinity to human (non-selective) ER and human AR (Kurata et al. 2005; Zava et al. 1979). Chemicals were incubated at 10 µM with cells overexpressing ER or AR for 24 h at 4°C, after which, the binding of the radiolabeled ligand ([^3H]estradiol for ER and [^3H]methyltrienolone for AR) was measured by liquid scintillation counting. An increase or decrease higher than 50% were considered to represent significant effects. […] Receptor binding was calculated as a % inhibition of the binding of a radioactively labeled ligand specific for each target.
Each test chemical was tested in a single assay in duplicate.
The mark [7] stands for this setting: read-out: Steroidogenesis Androgenicity LEC.
The mark [8] stands for this setting: read-out: Steroidogenesis Estrogenicity LEC.

Sequence of human AR (P10275 whole entry): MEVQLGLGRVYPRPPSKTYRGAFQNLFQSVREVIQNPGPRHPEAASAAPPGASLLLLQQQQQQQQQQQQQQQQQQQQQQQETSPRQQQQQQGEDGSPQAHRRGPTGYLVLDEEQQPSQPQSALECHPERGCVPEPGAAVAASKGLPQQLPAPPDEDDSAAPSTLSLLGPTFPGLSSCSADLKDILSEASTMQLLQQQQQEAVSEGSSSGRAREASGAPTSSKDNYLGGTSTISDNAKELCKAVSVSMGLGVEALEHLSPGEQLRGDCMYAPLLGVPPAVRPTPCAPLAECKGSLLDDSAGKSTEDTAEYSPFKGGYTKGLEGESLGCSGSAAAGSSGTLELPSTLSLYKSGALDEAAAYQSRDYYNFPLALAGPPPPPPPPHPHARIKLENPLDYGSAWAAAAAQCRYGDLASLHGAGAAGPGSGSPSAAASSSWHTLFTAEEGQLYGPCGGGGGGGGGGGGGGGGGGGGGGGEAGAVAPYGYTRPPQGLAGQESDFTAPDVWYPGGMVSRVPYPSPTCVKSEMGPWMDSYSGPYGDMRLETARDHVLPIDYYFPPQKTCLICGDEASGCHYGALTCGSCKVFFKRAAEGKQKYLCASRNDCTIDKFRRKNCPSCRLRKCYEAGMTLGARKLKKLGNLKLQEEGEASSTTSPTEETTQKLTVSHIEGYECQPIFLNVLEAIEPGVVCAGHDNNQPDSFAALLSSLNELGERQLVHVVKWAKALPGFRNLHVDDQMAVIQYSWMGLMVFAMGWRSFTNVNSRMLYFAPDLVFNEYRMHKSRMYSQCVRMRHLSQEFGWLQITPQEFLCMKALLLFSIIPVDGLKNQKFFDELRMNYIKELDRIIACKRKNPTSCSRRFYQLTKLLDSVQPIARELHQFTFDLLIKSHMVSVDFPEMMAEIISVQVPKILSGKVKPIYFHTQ

For the compound `C[C@]12CCC(=O)C[C@@H]1CC[C@@H]1[C@@H]2CC[C@@]2(C)[C@H]1CC[C@]2(C)O` [Mestanolone, mestanolone, reference compound], the minimal effective concentration in assay [1] (setting [7]) was greater than 0.00316 µM. For the same compound, the minimal effective concentration in assay [1] (setting [8]) was greater than 0.1 µM. Further, in assay [2], the “ToxCast conclusion from assays result” value is recorded as “Endocrine Disruption Potential.Significant Estrogen Receptor activity seen” and the “ToxCast 1: (Active assays), number of positive assays / assays run” value was 2/6 positive. Further, the “ToxCast 1: (assays Comments)” value in assay [2] (TOX21_AR_BLA_Agonist_ratio) was “High active”. In assay [2] (TOX21_AR_LUC_MDAKB2_Agonist), the “ToxCast 1: (assays Comments)” value is recorded as “High active”. In assay [3], the “Lowest Effective Concentration (LEC), ER agonism” value worked out at 0.028 µM. In addition, in assay [4], the ToxCast result was “Negative” and the “Final "true" call (ToxCast) Aromatase inhibition” value is listed as “Negative”. Besides, in assay [5], the “CERAPP Potency Level” value is “Weak agonist & strong antagonist”.
As to `O=c1c(-c2ccc(O)cc2)coc2cc(O)ccc12` [Daidzein, daidzein], the minimal effective concentration in assay [1] (setting [7]) was 0.794 µM. The minimal effective concentration in assay [1] (setting [8]) was greater than 3.16 µM. Moreover, the “LEC, androgen production” value in assay [1] (decrease) worked out at 0.77 µM. The “androgen production, fold of control” value in assay [1] (highest concentration tested, 100 µM) was 0.06 fold of control. Moreover, the AR binding outcome in assay [6] is “did not bind to the AR”. In assay [2], the “ToxCast conclusion from assays result” value is “Endocrine Disruption Potential.Significant Estrogen Receptor activity seen” and the “ToxCast 1: (Active assays), number of positive assays / assays run” value is 2/15 positive. For the same compound, the “efficacy (assays Comments)” value in assay [2] (TOX21_AR_LUC_MDAKB2_Agonist) was “Boarderline: less than 50% efficacy (20.8%)”. Further, the “Lowest Effective Concentration (LEC), ER agonism” value in assay [3] turned out to be 0.1 µM. Besides, in assay [4], the ToxCast result is “Negative” and the “Final "true" call (ToxCast) Aromatase inhibition” value is “Negative”. Further, the “CERAPP Potency Level” value in assay [5] was “Weak agonist & strong antagonist”.
A word on the inhibition: it is the percentage by which the read-out fell short of the control. On to `CC(C)(C)CC(C)(C)c1ccc(O)cc1` [4-TO, 4-tert-octylphenol], for which the minimal effective concentration in assay [1] (setting [7]) is greater than 1 µM. For the same compound, the AR binding outcome in assay [6] was “significant binding”. Further, the inhibition at 10 µM in assay [6] (read-out: inhibition of control specific binding to the AR) amounted to 10%. Further, in assay [2], the “ToxCast conclusion from assays result” value is on record as “Endocrine Disruption Potential.Significant Estrogen Receptor activity seen”. Besides, the “Final "true" call (ToxCast) Aromatase inhibition” value in assay [4] is on record as “Inconclusive”. In assay [5], the “CERAPP Potency Level” value is on record as “Weak agonist & strong antagonist”.
Consider `CCCCN(CCCC)c1ccc(C(=O)c2ccccc2C(=O)O)c(O)c1` [DBABA, 2-[4-(dibutylamino)-2-hydroxybenzoyl]benzoic acid], for which the minimal effective concentration in assay [1] (setting [7]) was greater than 10 µM. Also, the minimal effective concentration in assay [1] (setting [8]) was greater than 10 µM. The AR binding outcome in assay [6] was “did not bind to the AR”. Further, in assay [2], the “ToxCast conclusion from assays result” value is recorded as “Endocrine Disruption Potential.Significant Estrogen Receptor activity seen” and the “ToxCast 1: (Active assays), number of positive assays / assays run” value is 2/8 positive. For the same compound, in assay [2] (TOX21_AR_BLA_Antagonist_ratio), the “ToxCast 1: (assays Comments)” value is “Only highest concentration above the baseline”. The “efficacy (assays Comments)” value in assay [2] (TOX21_AR_BLA_Antagonist_viability) is given as “Boarderline: less than 50% efficacy (26.5%)”. For the same compound, in assay [4], the ToxCast result is given as “Negative” and the “Final "true" call (ToxCast) Aromatase inhibition” value is “Negative”. Also, in assay [5], the “CERAPP Potency Level” value was “Negative”.
